# Measurements as given in patent US11236120B2, “Azithromycin derivatives with epithelial barrier enhancement properties” (EpiEndo Pharmaceuticals ehf, priority 2015, dated 2022).
# How the values were obtained:
# [1] = Solubility in 10 mM phosphate buffer (pH 7.4); assay type: physicochemical; conditions: pH 7.4, aqueous buffer, kinetic from dmso stock, 60 minutes at room temperature, filtered, read-out: MTS Solubility in Buffer (pH 7.4)
# Protocol: Solubility in 10 mM Phosphate Buffer (pH 7.4)
# The solubility sample testing of the compounds was performed by in phosphate buffer at pH 7.4 and using HPLC-MS detection. A stock solution of […] in DMSO was prepared for each compound. For the solubility test sample, 100 μL of the stock solution was diluted with 3.9 mL of a 10 mM phosphate buffer at […] to a final concentration of […]. The buffer solution was left to stand for 60 minutes at room temperature and then filtered. The filtrate was analyzed against two calibration points of the same analyte prepared at […] using HPLC-MS. These calibration points were prepared from the same stock solution as the solubility sample by diluting it with DMSO:H2O (1:1) 1:40 and then again 1:10. The chromatographic signal area of the analyte in the solubility sample was then compared to the chromatographic signal area of the two calibration samples.
# (§1) The chromatographic separation was performed on a Waters HPLC-MS system using a 50×2.1 mm×Bridge C18 column and a gradient elution of Water with 0.1% formic acid and acetonitrile with 0.1% formic acid. The analytes were analyzed in positive electro-spray mode using the (M+H)^+ in single ion recording.
# [2] = Stability in human plasma; assay type: in vitro ADME; conditions: room temperature
# Protocol: (§2) Stability in Mouse and Human Plasma
# (§3) The stability of the compounds in mouse and human plasma was performed using protein precipitation as sample clean-up and HPLC-MS detection. The plasma stability studies of the compounds was performed at room temperature for up to 4 hours. A stock solution of […] in DMSO was prepared for each compound. For the plasma stability samples, 100 μL of the stock solution was diluted with 3.9 mL of either mouse or human plasma to a final concentration of […]. The plasma was left to equilibrate for 10 minutes at room temperature before the first analysis. For each analyzed time point ([…]) a 100 μL aliquot of the plasma was removed and protein precipitation (PPT) was performed on the aliquot by adding 900 μL of (ACN:DMSO) 95:5. The precipitated sample was shaken for 60 seconds and then centrifuged. The supernatant was transferred to an HPLC vial and analyzed using HPLC-MS. The chromatographic signal area of the samples at the different time points were then compared against each other, by setting the initial analysis at t=0 min as 100% and then calculating the %-value for each subsequent time point.
# as §1
# [3] = Stability in mouse plasma; assay type: in vitro ADME; conditions: room temperature
# Protocol: as §2, §3, §1
solubility at 60 min [1] [µM],Degradation in Human Plasma at RT [2],Degradation in Mouse Plasma at RT [3],SMILES
0.3,Stable,4 % per hour,"CC[C@H]1OC(=O)[C@H](C)[C@@H](O)[C@H](C)[C@@H](O[C@@H]2O[C@H](C)C[C@H](N(C)C(=O)COCc3ccccc3)[C@H]2O)[C@](C)(O)C[C@@H](C)CN(C)[C@H](C)[C@@H](O)[C@]1(C)O [Example 26, 2-benzyloxy-N-[(2S,3R,4S,6R)-2-[[(2R,3S,4R,5R,8R,10R,11R,12S,13S,14R)-2-ethyl-3,4,10,13-tetrahydroxy-3,5,6,8,10,12,14-heptamethyl-15-oxo-1-oxa-6-azacyclopentadec-11-yl]oxy]-3-hydroxy-6-methyl-tetrahydropyran-4-yl]-N-methyl-acetamide]"
0.49,Stable,Stable,"CC[C@H]1OC(=O)[C@H](C)[C@@H](O)[C@H](C)[C@@H](O[C@@H]2O[C@H](C)C[C@H](NC)[C@H]2O)[C@](C)(O)C[C@@H](C)CN(C)[C@H](C)[C@@H](O)[C@]1(C)O [Example 30, (2R,3S,4R,5R,8R,10R,11R,12S,13S,14R)-2-ethyl-3,4,10,13-tetrahydroxy-11-[(2S,3R,4S,6R)-3-hydroxy-6-methyl-4-(methylamino)tetrahydropyran-2-yl]oxy-3,5,6,8,10,12,14-heptamethyl-1-oxa-6-azacyclopentadecan-15-one]"
0.77,2 % per hour,Stable,"CC[C@H]1OC(=O)[C@H](C)[C@@H](O)[C@H](C)[C@@H](O[C@@H]2O[C@H](C)C[C@H](N(C)C(=O)Cc3ccccc3)[C@H]2O)[C@](C)(O)C[C@@H](C)CN(C)[C@H](C)[C@@H](O)[C@]1(C)O [Example 29, N-[(2S,3R,4S,6R)-2-[[(2R,3S,4R,5R,8R,10R,11R,12S,13S,14R)-2-ethyl-3,4,10,13-tetrahydroxy-3,5,6,8,10,12,14-heptamethyl-15-oxo-1-oxa-6-azacyclopentadec-11-yl]oxy]-3-hydroxy-6-methyl-tetrahydropyran-4-yl]-N-methyl-2-phenyl-acetamide]"
1.42,Stable,Stable,"CC[C@H]1OC(=O)[C@H](C)[C@@H](O)[C@H](C)[C@@H](O[C@@H]2O[C@H](C)C[C@H](N(C)C(=O)CCOc3ccccc3)[C@H]2O)[C@](C)(O)C[C@@H](C)CN(C)[C@H](C)[C@@H](O)[C@]1(C)O [Example 28, N-[(2S,3R,4S,6R)-2-[[(2R,3S,4R,5R,8R,10R,11R,12S,13S,14R)-2-ethyl-3,4,10,13-tetrahydroxy-3,5,6,8,10,12,14-heptamethyl-15-oxo-1-oxa-6-azacyclopentadec-11-yl]oxy]-3-hydroxy-6-methyl-tetrahydropyran-4-yl]-N-methyl-3-phenoxy-propanamide]"
0.3,Stable,3 % per hour,"CC[C@H]1OC(=O)[C@H](C)[C@@H](O)[C@H](C)[C@@H](O[C@@H]2O[C@H](C)C[C@H](N(C)C(=O)CNC(=O)OCc3ccccc3)[C@H]2O)[C@](C)(O)C[C@@H](C)CN(C)[C@H](C)[C@@H](O)[C@]1(C)O [Example 27, Benzyl N-[2-[[(2S,3R,4S,6R)-2-[[(2R,3S,4R,5R,8R,10R,11R,12S,13S,14R)-2-ethyl-3,4,10,13-tetrahydroxy-3,5,6,8,10,12,14-heptamethyl-15-oxo-1-oxa-6-azacyclopentadec-11-yl]oxy]-3-hydroxy-6-methyl-tetrahydropyran-4-yl]-methyl-amino]-2-oxo-ethyl]carbamate]"
2.4,Stable,Stable,"CC[C@H]1OC(=O)[C@H](C)[C@@H](O)[C@H](C)[C@@H](O[C@@H]2O[C@H](C)C[C@H](N(C)C)[C@H]2OC(=O)c2ccc3ccccc3c2)[C@](C)(O)C[C@@H](C)CN(C)[C@H](C)[C@@H](O)[C@]1(C)O [Example 24, [(2S,3R,4S,6R)-4-(dimethylamino)-2-[[(2R,3S,4R,5R,8R,10R,11R,12S,13S,14R)-2-ethyl-3,4,10,13-tetrahydroxy-3,5,6,8,10,12,14-heptamethyl-15-oxo-1-oxa-6-azacyclopentadec-11-yl]oxy]-6-methyl-tetrahydropyran-3-yl]naphthalene-2-carboxylate]"

# More lines, now with the values behind:
SMILES,solubility at 60 min [1] [µM],Degradation in Human Plasma at RT [2],Degradation in Mouse Plasma at RT [3]
"CC[C@H]1OC(=O)[C@H](C)[C@@H](O)[C@H](C)[C@@H](O[C@@H]2O[C@H](C)C[C@H](N(C)C)[C@H]2OC(=O)c2ccc(-c3ccc(S(C)(=O)=O)cc3)cc2)[C@](C)(O)C[C@@H](C)CN(C)[C@H](C)[C@@H](O)[C@]1(C)O [Example 12, [(2S,3R,4S,6R)-4-(dimethylamino)-2-[[(2R,3S,4R,5R,8R,10R,11R,12S,13S,14R)-2-ethyl-3,4,10,13-tetrahydroxy-3,5,6,8,10,12,14-heptamethyl-15-oxo-1-oxa-6-azacyclopentadec-11-yl]oxy]-6-methyl-tetrahydropyran-3-yl]4-(4-methylsulfonylphenyl) benzoate]",0.3,2 % per hour,2 % per hour
"CC[C@H]1OC(=O)[C@H](C)[C@@H](O)[C@H](C)[C@@H](O[C@@H]2O[C@H](C)C[C@H](N(C)C)[C@H]2OC(=O)CCC(=O)O)[C@](C)(O)C[C@@H](C)CN(C)[C@H](C)[C@@H](O)[C@]1(C)O [Example 17, 4-[(2S,3R,4S,6R)-4-(dimethylamino)-2-[[(2R,3S,4R,5R,8R,10R,11R,12S,13S,14R)-2-ethyl-3,4,10,13-tetrahydroxy-3,5,6,8,10,12,14-heptamethyl-15-oxo-1-oxa-6-azacyclopentadec-11-yl]oxy]-6-methyl-tetrahydropyran-3-yl]oxy-4-oxo-butanoic acid]",0.66,20 % per hour,ca. 20% per hour
"CC[C@H]1OC(=O)[C@H](C)[C@@H](O)[C@H](C)[C@@H](O[C@@H]2O[C@H](C)C[C@H](N(C)C(=O)CCC(=O)O)[C@H]2O)[C@](C)(O)C[C@@H](C)CN(C)[C@H](C)[C@@H](O)[C@]1(C)O [Example 18, 4-[[(2S,3R,4S,6R)-2-[[(2R,3S,4R,5R,8R,10R,11R,12S,13S,14R)-2-ethyl-3,4,10,13-tetrahydroxy-3,5,6,8,10,12,14-heptamethyl-15-oxo-1-oxa-6-azacyclopentadec-11-yl]oxy]-3-hydroxy-6-methyl-tetrahydropyran-4-yl]-methyl-amino]-4-oxo-butanoic acid]",0.4,Stable,
"CCc1ccc(C(=O)O[C@H]2[C@H](O[C@@H]3[C@@H](C)[C@H](O)[C@@H](C)C(=O)O[C@H](CC)[C@@](C)(O)[C@H](O)[C@@H](C)N(C)C[C@H](C)C[C@@]3(C)O)O[C@H](C)C[C@@H]2N(C)C)cc1 [Example 22, [(2S,3R,4S,6R)-4-(dimethylamino)-2-[[(2R,3S,4R,5R,8R,10R,11R,12S,13S,14R)-2-ethyl-3,4,10,13-tetrahydroxy-3,5,6,8,10,12,14-heptamethyl-15-oxo-1-oxa-6-azacyclopentadec-11-yl]oxy]-6-methyl-tetrahydropyran-3-yl]4-ethylbenzoate]",1.43,Stable,Stable
"CC[C@H]1OC(=O)[C@H](C)[C@@H](O)[C@H](C)[C@@H](O[C@@H]2O[C@H](C)C[C@H](N(C)C(=O)c3ccccc3)[C@H]2O)[C@](C)(O)C[C@@H](C)CN(C)[C@H](C)[C@@H](O)[C@]1(C)O [Example 7, N-[(2S,3R,4S,6R)-2-[[(2R,3S,4R,5R,8R,10R,11R,12S,13S,14R)-2-ethyl-3,4,10,13-tetrahydroxy-3,5,6,8,10,12,14-heptamethyl-15-oxo-1-oxa-6-azacyclopentadec-11-yl]oxy]-3-hydroxy-6-methyl-tetrahydropyran-4-yl]-N-methyl-benzamide]",0.23,Stable,
